Experiment [1] relates to pulmonary thromboembolic death. In words: Inhibitory Action in Mouse Pulmonary Thromboembolic Death. Format: in vivo, male ddY mice. The following applies: 3 mg/kg oral; within 10 minutes after injection of collagen 1 mg/kg and serotonin hydrochloride 5 mg/kg. As for the experimental part:
Male ddY mice which ranged in age from 4 to 5 weeks were used after fasted overnight. Suspensions of Compounds a-c, which will be specified subsequently herein, in a 0.5% aqueous solution of carboxymethylcellulose sodium were orally administered at 3 mg/kg.
After 1 hour, collagen [1 mg/kg, "Collagenreagent Form" (trade name), product of Moriya Sangyo Co., Ltd.] and serotonin hydrochloride (5 mg/kg, product of Sigma Chemical Co.) were injected through the candal veins.
An investigation was made for mortality rates of mice within 10 minutes after the injection.

In experiment [2] the test system is gastrocnemius-plantaris-sole muscle (GPS muscle). In words: Test in Rat Intermittent Claudication Model (muscle contraction force after collagen infusion). Format: in vivo, male Wistar rats. To be noted: 20 minutes after collagen infusion. How it is done:
Based on the methods proposed by Angersbach, D. et al. in Int. J. Microcirc. Clin. Exp., 7, 15-30 (1988) and by Loots, W. et al. in Am. J. Physiol. 265, H158-H164 (1993), an intermittent claudication model was designed as will be described next. Firstly, male Wistar rats which ranged in age from 9 to 10 weeks were ligated at right femoral arteries under anesthesia with pentobanbital [40 mg/kg, intraperitoneal administration, "Nembutal Injection" (trademark), product of Dainabot Co., Ltd.] and were fed for 1 week. After fasted overnight, a suspension of (-)-(S)-5-[3-[4-(4-fluorophenyl)piperazin-1-yl]propyl]-8-hydroxy-1-methyl- 1,4,5,6,7,8-hexahydropyrrolo[3,2-c]azepin-4-one (test compound a) in a 0.5% aqueous solution of carboxymethylcellulose sodium salt was orally administered at 1, 3 and 10 mg/kg, respectively.
After an elapsed time of 60 minutes since the administration, each rat was subjected to anesthetization with urethan ([…], intraperitoneal administration, product of Sigma Chemical Co.) and α-chloralose ([…], intraperitoneal administration, product of NACALAI TESQUE, INC.). To administer collagen into artery, a cannula ["SP-31" (trade name), manufactured by Natsume Seisakusho Co., Ltd.] was inserted through the left carotid artery such that its leading end was located on a proximal side of the branching point of the iliac artery. Thereafter, the rat was held in a prone position, and the skin of the right hind leg was flayed to expose the gastrocnemius-plantaris-sole muscle (GPS muscle). The Achilles tendon was bound and cut off, connected to an isometric tension meter ["CBE-1 10 kg" (trade name), manufactured by MINEBEA Co., Ltd.], and then held in place with a resting tension of about 100 g. […] Contraction force produced upon electric stimulation was recorded [amplifier: "AP-620G" (trade name), manufactured by Nihon Kohden Corporation, recorder: "WT-645G" (trade name), manufactured by Nihon Kohden Corporation]. […]

Experiment [3] concerns platelet aggregation (platelet-rich plasma). The experiment can be described thus: Inhibitory Effect on Canine Platelet Aggregation (ex vivo after oral administration, collagen + serotonin). Type of experiment: in vivo, canine (male beagles). The following applies: Canis lupus familiaris, 0.1 mg/kg oral, collagen + serotonin 1 μM, read-out: Aggregation inhibition rate. As for the experimental part: Four male beagles which ranged in age from 17 to 19 months were used after fasted overnight. A suspension of (-)-(S)-5-[3-[4-(4-fluorophenyl)piperazin-1-yl]propyl]-8-hydroxy-1-methyl- 1,4,5,6,7,8-hexahydropyrrolo[3,2-c]azepin-4-one (test compound a) in a 0.5% aqueous solution of carboxymethylcellulose sodium salt was orally administered at 0.1 mg/kg. Before the administration of the test compound and after elapsed times of 1, 2, 4 and 6 hours from the administration, blood samples were collected from the foreleg veins. The blood was sampled using syringes containing a 1/10 volume of a 3.8% aqueous solution of sodium citrate ["cytorate for ESR Measurement" (trade name), product of The Green Cross Corp.].
Each collected blood sample was centrifuged at room temperature and 190 g for 7 minutes, and the upper layer, platelet-rich plasma (PRP), was collected. The remaining blood was centrifuged at 1,500 g for 10 minutes, and the upper layer, platelet-poor plasma (PPP), was collected. Using collagen [final concentration: 0.03 to 5 μg/ml, "Collagenreagent Form" (trade name), product of Moriya Sangyo Co., Ltd.] and serotonin (final concentration: 1 μM, serotonin hydrochloride, product of Sigma Chemical Co.) as a platelet proaggrecant, the platelet aggregating ability was measured by the Born turbidimetry. Specifically, using PPP as a control, a solution of calcium chloride (product of NACALAI TESQUE, INC.) was added to PRP at 37° C. to give a final concentration of 1 mM. After 2 minutes, the proaggrecant was added. Variations in transmittance, which took place in the course of subsequent 10 minutes, were measured using a platelet aggregometer measuring instrument ["PAM-8C" (trade name), manufactured by MEBANCS, INC.], and its maximum value was recorded as a platelet aggregation rate (%). […] As an aggregation inhibition rate, the proportion of an aggregation rate after the administration of the test compound relative to an aggregation rate before the administration of the test compound was shown in percentage.

Experiment [4] has as its system Coronary artery. The experiment can be described thus: Relaxation of vasoconstriction induced by supernatant of aggregated platelets, coronary artery. On the set-up: species or system male Japanese white rabbit. To be noted: Oryctolagus cuniculus, aggregated platelet supernatant 1/100-fold dilution, read-out: EC50 (50% relaxation). As for the experimental part: (§1) After a male Japanese white rabbit was anesthetized by intramuscular administration of ketamine (product of sankyo Company, Limited) at 50 mg/kg, a polyethylene-made catheter ["PE240" (trade name), manufactured by Becton Dickinson Co., Ltd.] was inserted into a carotid artery, and the blood was collected with a tube containing a 1/10 volume of a 3.8% aqueous solution of sodium citrate [NACALAI TESQUE, Inc.]. The blood so collected was centrifuged at 90 g (900 rpm) for 15 minutes ["05PR-22" (trade name), manufactured by Hitachi Koki Co., Ltd.] and platelet-rich plasma (PRP) was collected from the upper layer.
(§2) After addition of an equiamount of buffer A (25 mM Tris-HCl, 130 mM NaCl, 1.5 mM EDTA, pH 7.4), to PRP, the mixture was centrifuged at 4° C. and 1,500 g (3,000 rpm) for 10 minutes. The thus-obtained platelet pellet was suspended again in buffer A, followed by centrifugation at 4° C. and 1,500 g (3,000 rpm) for 5 minutes. The resulting platelet pellet was suspended again in buffer B (25 mM Tris-HCl, 130 mM NaCl, 0.3 mM EDTA, pH 7.4), followed by centrifugation under the same conditions. […]
(§3) After the vascular strip preparations had been left over for about 1 hour and their resting tensions had been confirmed to become stable, the tonicities of the vascular strip preparations were measured using the isometric transducers. […]

Experiment [5] deals with Basilar artery. The experiment can be described thus: Relaxation of vasoconstriction induced by supernatant of aggregated platelets, basilar artery. On the set-up: species or system male Japanese white rabbit. To be noted: Oryctolagus cuniculus, aggregated platelet supernatant 1/100-fold dilution, read-out: EC50 (50% relaxation). As for the experimental part: as §1, §2, §3

In experiment [6] the test system is Pulmonary artery. The experiment can be described thus: Relaxation of vasoconstriction induced by supernatant of aggregated platelets, pulmonary artery. The arrangement: species or system male Japanese white rabbit. The following applies: Oryctolagus cuniculus, aggregated platelet supernatant 1/100-fold dilution, read-out: EC50 (50% relaxation). How it is done: as §1, §2, §3

The subject of experiment [7] is Mesenteric artery. The experiment can be described thus: Relaxation of vasoconstriction induced by supernatant of aggregated platelets, mesenteric artery. The arrangement: species or system male Japanese white rabbit. The following applies: Oryctolagus cuniculus, aggregated platelet supernatant 1/100-fold dilution, read-out: EC50 (50% relaxation). How it is done:
as §1, §2, §3

The test system of experiment [8] is Renal artery. In words: Relaxation of vasoconstriction induced by supernatant of aggregated platelets, renal artery. On the set-up: species or system male Japanese white rabbit. The following applies: Oryctolagus cuniculus, aggregated platelet supernatant 1/100-fold dilution, read-out: EC50 (50% relaxation). How it is done:
as §1, §2, §3

For experiment [9], the system named is Femoral artery. The experiment can be described thus: Relaxation of vasoconstriction induced by supernatant of aggregated platelets, femoral artery. To be noted: Oryctolagus cuniculus, aggregated platelet supernatant 1/100-fold dilution, read-out: EC50 (50% relaxation). On the set-up: species or system male Japanese white rabbit. How it is done: as §1, §2, §3

Read-outs that look alike come from different tables or passages of the source.

In [1], `Cn1ccc2c1C(O)CCN(CCCN1CCN(c3ccc(F)cc3)CC1)C2=O` (racemic) [Compound b, (±)-5-[3-[4-(4-fluorophenyl)piperazin-1-yl]propyl]-8-hydroxy-1-methyl-1,4,5,6,7,8-hexahydropyrrolo[3,2-c]azepin-4-one] had a Mortality rate of 25%.

For orientation: inhibition means the drop in the measured response relative to a control, in per cent. The EC50 is the concentration that produces a half-maximal response. For the compound `Cn1ccc2c1[C@@H](O)CCN(CCCN1CCN(c3ccc(F)cc3)CC1)C2=O` [Compound a, (-)-(S)-5-[3-[4-(4-fluorophenyl)piperazin-1-yl]propyl]-8-hydroxy-1-methyl-1,4,5,6,7,8-hexahydropyrrolo[3,2-c]azepin-4-one], the figures for the Contraction force in experiment [2] (1 mg/kg oral), in experiment [2] (3 mg/kg oral) and in [2] (10 mg/kg oral) were 93 ± 17 g, 116 ± 15 g and 122 ± 10 g, respectively. The inhibition at 0.1 mg/kg stood at 99.7 ± 0.3% in experiment [3] (1 hr after administration), 99.8 ± 0.2% in experiment [3] (2 hr after administration), 99.3 ± 0.7% in experiment [3] (4 hr after administration) and 72.5 ± 16.1% in experiment [3] (6 hr after administration). Besides, the EC50 in experiment [4] came to 254 ± 54 nM; in experiment [5], 138 ± 55 nM; in [6], 14 ± 3 nM; in experiment [7], 32 ± 22 nM; in [8], 246 ± 79 nM; in [9], 328 ± 112 nM. In experiment [1], the Mortality rate came to 10%.

As to `Cc1cn(C)c2c1C(=O)N(CCCN1CCN(c3ccc(F)cc3)CC1)CCC2O` (stereo not shown) [Compound c, 5-[3-[4-(4-fluorophenyl)piperazin-1-yl]propyl]-8-hydroxy-1,3-dimethyl-1,4,5,6,7,8-hexahydropyrrolo[3,2-c]azepin-4-one], the Mortality rate in experiment [1] was determined as 30%.
